Experimental data: patent US20240116922A1, “IMIDAZO[1,2-A]PYRIDINE DERIVATIVES AS IRAK4 INHIBITORS AND THEIR USE IN THE TREATMENT OF DISEASE” (BIOGEN MA INC., priority 2020, published 2024)
Values after ≈ are worked out from the molar mass of the structure shown.

What was measured:
[1] = biological target: IRAK4 (Homo sapiens (Human), UniProt Q9NWZ3); assay: IRAK4 MSD biochemical assay (2-hour 1 mM ATP); conditions: 0.1 nM IRAK4, 1 mM ATP, 2 hour at room temperature
[2] = biological target: MDR1 (Homo sapiens (Human), UniProt P08183); assay: in vitro; conditions: MDCK-MDR1
[3] = Kinetic solubility assay (CLND), pH 6.8; type: physicochemical; conditions: aqueous buffer, kinetic from dmso stock; potassium phosphate buffer pH 6.8, 2% DMSO, 24 hours at ambient temperature

Chain of IRAK4 (Q9NWZ3 whole entry): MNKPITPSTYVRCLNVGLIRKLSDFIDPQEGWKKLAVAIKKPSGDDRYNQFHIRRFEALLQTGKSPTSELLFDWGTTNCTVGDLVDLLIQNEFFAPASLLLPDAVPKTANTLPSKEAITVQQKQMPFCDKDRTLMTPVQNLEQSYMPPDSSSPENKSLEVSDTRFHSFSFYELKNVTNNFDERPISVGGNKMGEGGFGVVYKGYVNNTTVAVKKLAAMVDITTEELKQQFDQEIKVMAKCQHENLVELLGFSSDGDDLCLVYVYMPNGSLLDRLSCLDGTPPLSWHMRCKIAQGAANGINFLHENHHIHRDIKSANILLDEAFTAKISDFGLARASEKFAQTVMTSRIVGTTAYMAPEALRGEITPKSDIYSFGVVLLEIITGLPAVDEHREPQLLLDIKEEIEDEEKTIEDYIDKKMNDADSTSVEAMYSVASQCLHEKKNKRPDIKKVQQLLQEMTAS
Chain of MDR1 (P08183 whole entry): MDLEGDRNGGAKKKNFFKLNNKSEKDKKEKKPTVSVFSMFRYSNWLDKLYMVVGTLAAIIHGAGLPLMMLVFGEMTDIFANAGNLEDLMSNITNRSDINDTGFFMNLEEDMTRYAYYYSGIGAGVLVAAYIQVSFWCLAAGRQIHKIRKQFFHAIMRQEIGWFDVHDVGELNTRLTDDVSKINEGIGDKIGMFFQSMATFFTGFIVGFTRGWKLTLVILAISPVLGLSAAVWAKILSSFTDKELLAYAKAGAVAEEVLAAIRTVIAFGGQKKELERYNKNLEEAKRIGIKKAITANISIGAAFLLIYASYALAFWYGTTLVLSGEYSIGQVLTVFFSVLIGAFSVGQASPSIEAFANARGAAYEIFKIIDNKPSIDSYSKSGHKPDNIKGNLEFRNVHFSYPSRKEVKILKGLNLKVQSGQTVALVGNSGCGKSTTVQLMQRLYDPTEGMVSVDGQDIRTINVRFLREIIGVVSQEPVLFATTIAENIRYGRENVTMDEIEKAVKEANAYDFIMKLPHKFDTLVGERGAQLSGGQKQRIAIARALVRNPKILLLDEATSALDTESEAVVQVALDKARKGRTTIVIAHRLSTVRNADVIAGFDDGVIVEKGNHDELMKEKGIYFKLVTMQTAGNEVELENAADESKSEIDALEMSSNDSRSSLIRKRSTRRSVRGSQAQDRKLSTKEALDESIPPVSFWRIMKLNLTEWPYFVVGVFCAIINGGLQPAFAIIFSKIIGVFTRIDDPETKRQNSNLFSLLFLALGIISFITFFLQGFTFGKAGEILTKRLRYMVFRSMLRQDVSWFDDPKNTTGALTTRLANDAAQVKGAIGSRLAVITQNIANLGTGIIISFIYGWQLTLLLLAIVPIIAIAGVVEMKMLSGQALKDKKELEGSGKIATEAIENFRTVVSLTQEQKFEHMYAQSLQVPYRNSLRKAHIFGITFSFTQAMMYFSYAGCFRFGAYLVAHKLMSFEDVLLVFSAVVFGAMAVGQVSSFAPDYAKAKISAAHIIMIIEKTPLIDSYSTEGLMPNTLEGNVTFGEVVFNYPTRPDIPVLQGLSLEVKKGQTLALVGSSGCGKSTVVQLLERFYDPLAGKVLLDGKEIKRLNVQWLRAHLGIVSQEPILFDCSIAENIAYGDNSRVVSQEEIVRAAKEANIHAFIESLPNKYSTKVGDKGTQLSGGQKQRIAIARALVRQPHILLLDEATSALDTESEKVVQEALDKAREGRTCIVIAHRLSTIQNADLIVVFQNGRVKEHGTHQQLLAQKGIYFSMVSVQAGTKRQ

Row | Structure (SMILES) | IC50 [1] | efflux ratio at 120 min, 1 μM [2] | solubility kinetic at 24 h [3]
1 | CC[C@@H](C)Oc1nc2nc(C34COC(C)(C3)C4)cn2cc1C(=O)Nc1cccn([C@@H]2C[C@@H]2F)c1=O (mixture of isomers) [Example 41, 7-((R)-sec-butoxy)-N-(1-(cis-2-fluorocyclopropyl)-2-oxo-1,2-dihydropyridin-3-yl)-2-(1-methyl-2-oxabicyclo[2.1.1]hexan-4-yl)imidazo[1,2-a]pyrimidine-6-carboxamide] | 0.6 nM | 9.1 | 
2 | CC[C@@H](C)Oc1nc2nc(C34COC(C)(C3)C4)cn2cc1C(=O)Nc1cccn([C@@H]2C[C@@H]2F)c1=O (single isomer, unassigned) [Example 57] | 23 nM | 7.9 | 
3 | CC[C@H](C)Oc1nc2nc(C34COC(C)(C3)C4)cn2cc1C(=O)Nc1cccn([C@@H]2C[C@@H]2F)c1=O (single isomer, unassigned) [Example 59] | 9 nM | 9.4 | 
4 | CC(C)Oc1nc2nc(C34COC(C)(C3)C4)cn2cc1C(=O)Nc1cccn([C@@H]2CC2(C)C)c1=O (single isomer, unassigned) [Example 78] | 11 nM | 2.1 | 
5 | CC(C)Oc1c(C(=O)Nc2cccn([C@@H]3C[C@@H]3F)c2=O)cn2cc(C34COC(C)(C3)C4)nc2c1F (single isomer, unassigned) [Example 92] | 61 nM |  | 
6 | CC(C)Oc1c(C(=O)Nc2cccn([C@@H]3C[C@@H]3F)c2=O)cn2cc([C@@]34CC[C@@](C)(C3)OC4)nc2c1F (single isomer, unassigned) [Example 124] | 45.5 nM |  | 
7 | CC(C)Oc1c(C(=O)Nc2cccn([C@@H]3C[C@@H]3F)c2=O)cn2cc([C@]34CC[C@](C)(C3)OC4)nc2c1F (single isomer, unassigned) [Example 126] | 66.5 nM | 4.4 | 
8 | CO[C@H]1C[C@@H]1n1cccc(NC(=O)c2cn3cc(C45COC(C)(C4)C5)nc3nc2OC(C)C)c1=O (single isomer, unassigned) [Example 138] | 6.3 nM | 3.8 | 
9 | O=C(Nc1cccn([C@@H]2C[C@@H]2F)c1=O)c1cn2cc(C34COC(C3)C4)nc2nc1OC1CCC1 (single isomer, unassigned) [Example 166] | 41 nM | 2.6 | 
10 | CC(C)Oc1cc2nc([C@@]34CC[C@@](C)(C3)OC4)cn2cc1C(=O)Nc1cccn([C@@H]2C[C@@H]2F)c1=O (single isomer, unassigned) [Example 168] | 7.5 nM |  | 
11 | CC(C)Oc1cc2nc([C@]34CC[C@](C)(C3)OC4)cn2cc1C(=O)Nc1cccn([C@@H]2C[C@@H]2F)c1=O (single isomer, unassigned) [Example 170] | 9.4 nM |  | 
12 | CC12CC(c3cn4cc(C(=O)Nc5cccn([C@@H]6C[C@@H]6F)c5=O)c(OC5CCC5)cc4n3)(CO1)C2 (single isomer, unassigned) [Example 172] | 27 nM |  | 
13 | CC12CC(c3cn4cc(C(=O)Nc5cccn([C@@H]6C[C@@H]6F)c5=O)c(OC5CC5)cc4n3)(CO1)C2 (single isomer, unassigned) [Example 174] | 37.5 nM |  | 
14 | CC(C)Oc1nc2nc(C34CCC(C)(CC3)OC4)cn2cc1C(=O)Nc1cccc(C(F)F)n1 [Comparator 5A, N-(6-(difluoromethyl)pyridin-2-yl)-7-isopropoxy-2-(1-methyl-2-oxabicyclo[2.2.2]octan-4-yl)imidazo[1,2-a]pyrimidine-6-carboxamide, reference compound] |  | 1 | 1.5 µg/mL (≈ 3.18 µM)
15 | Cc1cnc2c(NC(=O)c3cn4cc(C56CCC(C)(CC5)OC6)nc4cc3OC(C)C)cnn2c1 [Comparator 5B, 7-isopropoxy-2-(1-methyl-2-oxabicyclo[2.2.2]octan-4-yl)-N-(6-methylpyrazolo[1,5-a]pyrimidin-3-yl)imidazo[1,2-a]pyridine-6-carboxamide, reference compound] |  | 1.4 | 5.2 µg/mL (≈ 11 µM)
16 | CC[C@@H](C)Oc1nc2nc([C@]34CC[C@](C)(C3)OC4)cn2cc1C(=O)Nc1cccn(C2CC2)c1=O [Example 51, 7-((R)-sec-butoxy)-N-(1-cyclopropyl-2-oxo-1,2-dihydropyridin-3-yl)-2-((1R,4S)-1-methyl-2-oxabicyclo[2.2.1]heptan-4-yl)imidazo[1,2-a]pyrimidine-6-carboxamide] | 1.8 nM | 3.1 | 
17 | CC[C@@H](C)Oc1nc2nc(C34CCC(CF)(C3)OC4)cn2cc1C(=O)Nc1cccn(C2CC2)c1=O (stereo partly drawn) [Example 55, 7-((R)-sec-butoxy)-N-(1-cyclopropyl-2-oxo-1,2-dihydropyridin-3-yl)-2-(1-(fluoromethyl)-2-oxabicyclo[2.2.1]heptan-4-yl)imidazo[1,2-a]pyrimidine-6-carboxamide] | 1.1 nM | 4.7 | 
18 | CC(C)Oc1cc2nc(C34COC(C)(C3)C4)cn2cc1C(=O)Nc1ccnn(C2CC2)c1=O [Example 76] |  | 3.6 | 50.9 µg/mL (≈ 113 µM)

The remaining molecules from weak to strong by IC50 [1], led by results:

Row | IC50 [1] | efflux ratio at 120 min, 1 μM [2] | solubility kinetic at 24 h [3] | Structure (SMILES)
19 | 3.1 nM |  |  | CC[C@H](C)Oc1cc2nc(C34COC(C)(C3)C4)cn2cc1C(=O)Nc1cccn([C@@H]2C[C@@H]2F)c1=O (single isomer, unassigned) [Example 160]
20 | 2.7 nM | 1 |  | CC(C)Oc1nc2nc([C@@]34CC[C@@](C)(C3)OC4)cn2cc1C(=O)Nc1cccn([C@H]2CC23CC3)c1=O (single isomer, unassigned) [Example 150]
21 | 1.7 nM | 1.5 |  | CC(C)Oc1nc2nc([C@]34CC[C@](C)(C3)OC4)cn2cc1C(=O)Nc1cccn([C@@H]2CC23CC3)c1=O (single isomer, unassigned) [Example 153]
22 | 1.4 nM | 4.8 |  | CO[C@@H]1C[C@H]1n1cccc(NC(=O)c2cn3cc(C45COC(C)(C4)C5)nc3nc2OC(C)C)c1=O (single isomer, unassigned) [Example 137]
23 | 1.3 nM | 10.3 |  | CCOc1nc2nc(C34COC(C)(C3)C4)cn2cc1C(=O)Nc1cccn(C2CC2)c1=O [Example 43, N-(1-cyclopropyl-2-oxo-1,2-dihydropyridin-3-yl)-7-ethoxy-2-(1-methyl-2-oxabicyclo[2.1.1]hexan-4-yl)imidazo[1,2-a]pyrimidine-6-carboxamide]
24 | 1.2 nM |  | 37 µg/mL (≈ 77.5 µM) | CC(C)Oc1nc2nc([C@]34CC[C@](C)(C3)OC4)cn2cc1C(=O)Nc1cccn([C@H]2C[C@@H]2C)c1=O (single isomer, unassigned) [Example 142]
25 | 1.2 nM | 2.6 |  | CC(C)Oc1nc2nc([C@@]34CC[C@@](C)(C3)OC4)cn2cc1C(=O)Nc1cccn([C@@H]2C[C@H]2C)c1=O (single isomer, unassigned) [Example 148]
26 | 1.1 nM | 1.2 |  | CC(C)Oc1nc2nc([C@@]34CC[C@@](C)(C3)OC4)cn2cc1C(=O)Nc1cccn([C@@H]2CC23CC3)c1=O (single isomer, unassigned) [Example 151]
27 | 1.1 nM |  |  | CC(C)Oc1cc2nc(C34COC(C)(C3)C4)cn2cc1C(=O)Nc1cccn([C@H]2C[C@@H]2C)c1=O [Example 140, 7-isopropoxy-2-(1-methyl-2-oxabicyclo[2.1.1]hexan-4-yl)-N-(1-((1S,2S)-2-methylcyclopropyl)-2-oxo-1,2-dihydropyridin-3-yl)imidazo[1,2-a]pyridine-6-carboxamide]
28 | 0.8 nM | 5.1 |  | CC(C)Oc1c(C(=O)Nc2cccn([C@@H]3C[C@@H]3F)c2=O)cn2cc(C34COC(C)(C3)C4)nc2c1F (racemic) [Example 91, (rac)-Cis-8-fluoro-N-(1-(2-fluorocyclopropyl)-2-oxo-1,2-dihydropyridin-3-yl)-7-isopropoxy-2-(1-methyl-2-oxabicyclo[2.1.1]hexan-4-yl)imidazo[1,2-a]pyridine-6-carboxamide]
29 | 0.5 nM | 7 |  | CC(C)Oc1nc2nc(C[C@H]3CCOC3)cn2cc1C(=O)Nc1cccn(C2CC2)c1=O (single isomer, unassigned) [Example 110]
30 | 0.5 nM |  | 39.9 µg/mL (≈ 80 µM) | CC(C)Oc1c(C(=O)Nc2cccn([C@H]3C[C@H]3F)c2=O)cn2cc([C@@]34CC[C@@](C)(C3)OC4)nc2c1F (single isomer, unassigned) [Example 125]
31 | 0.4 nM |  | 62 µg/mL | CC(C)Oc1cc2nc([C@@]34CC[C@@](C)(C3)OC4)cn2cc1C(=O)Nc1cccn(C2CC2F)c1=O (mixture of isomers) [Example 99, N-(1-(2-fluorocyclopropyl)-2-oxo-1,2-dihydropyridin-3-yl)-7-isopropoxy-2-((1S,4R)-1-methyl-2-oxabicyclo[2.2.1]heptan-4-yl)imidazo[1,2-a]pyridine-6-carboxamide]
32 | 0.4 nM |  | 43.2 µg/mL (≈ 90.5 µM) | CC(C)Oc1nc2nc([C@]34CC[C@](C)(C3)OC4)cn2cc1C(=O)Nc1cccn([C@@H]2C[C@H]2C)c1=O (single isomer, unassigned) [Example 141]
33 | 0.3 nM | 3 |  | CC(C)Oc1nc2nc([C@H]3CCCOC3)cn2cc1C(=O)Nc1cccn(C2CC2)c1=O (single isomer, unassigned) [Example 107]
34 | 0.3 nM | 10.4 |  | CC(C)Oc1cc2nc([C@@]34CC[C@@](C)(C3)OC4)cn2cc1C(=O)Nc1cccn([C@H]2C[C@H]2F)c1=O (single isomer, unassigned) [Example 169]
35 | 0.3 nM | 7 |  | CC(C)Oc1cc2nc(C34CCC(C3)OC4)cn2cc1C(=O)Nc1cccn(C2CC2)c1=O (centres unmarked) [Example 38, 2-(2-oxabicyclo[2.2.1]heptan-4-yl)-N-(1-cyclopropyl-2-oxo-1,2-dihydropyridin-3-yl)-7-isopropoxyimidazo[1,2-a]pyridine-6-carboxamide]
